Where “and” joins values, the source holds several entries; their conditions need not be identical. Equal entries are not always repeated. Where two headings read alike, the source gives them in different places.
Key:
E. coli = E. coli mouse infection model; type: in vivo; conditions: for translocation of bacteria to liver and spleen: oral, CFU in liver
Description: FIG. 1: E. coli mouse infection model. CFU measured in tissue: colon, ileum, liver, spleen. Statistical analysis was performed by comparing all conditions to the vehicle-treated group and using one-way ANOVA with Dunnett post-hoc test, *** p<0.001, **** p<0.0001, ns non-significant.
Compound 1 was administered orally to a mouse model of E. coli infection at 25 mg/kg, 73.5 mk/kg and 50 mg/kg. Compound 1 achieved the study goal of lowering Colony Unit Forming count in colon tissue by a factor of 3 log10 compared to vehicle treated animals.
• Infecting mice through oral administration of a vancomycin resistant pathogenic strain of E. coli simplified the process of determining the mechanism(s) by which compound 1 exerts its effects on the pathogenic process. […] This is evidenced by the fact that there still are viable vancomycin resistant E. coli present in the colon and ileum at the conclusion of the experiment (FIG. 1). […] It is therefore unlikely that compound 1 is inhibiting E. coli translocation to these organs solely due to its ability to stimulate production of antibacterial peptides. […] That experiment was performed in the presence of cyclophosphamide, which is known to cause febrile neutropenia due to translocation of bacteria to vital organs. […] First is the ability of the compound 1 to attenuate the growth of bacteria and secondly is its ability to inhibit the bacterial translocation.

[1] = test system: Enterotoxigenic Escherichia coli (ETEC) (ATCC ® 35401 ™, H10407); type: in vivo, mouse; conditions: for Body weights (Final Day) (Mean ± SD) / Log10 CFU/g [Mean ± SD] Blood / Log10 CFU/g [Mean ± SD] Kidneys / Log10 CFU/g [Mean ± SD] Liver / Log10 CFU/g [Mean ± SD] Spleen / Kidney -Raw data on Vancomycin (32 μg/ml) plates / Liver-Raw data on Vancomycin (32 μg/ml) plates / Spleen -Raw data on Vancomycin (32 μg/ml) plates / Blood -Raw data on Vancomycin (32 μg/ml) plates - on day 7 PI: PO, twice daily(q12h), 9 days; for effect on bacterial translocation: presence of cyclophosphamide, FIG. 4; for Clinical observation (Mean Score) Hunched Posture / Clinical observation (Mean Score) Lethergy / Clinical observation (Mean Score) Rough coat / Clinical observation (Mean Score) hyperpnea: 0=absent 1=present; for Kidney -Raw data on Vancomycin (32 μg/ml) plates / Liver-Raw data on Vancomycin (32 μg/ml) plates / Spleen -Raw data on Vancomycin (32 μg/ml) plates / Blood -Raw data on Vancomycin (32 μg/ml) plates - on day 7 PI: individual animals
Description: FIG. 3: Schematic protocol for neutropenia mouse model
A schematic of the experimental model is depicted in FIG. 3.
That experiment was performed in the presence of cyclophosphamide, which is known to cause febrile neutropenia due to translocation of bacteria to vital organs.

[2] = Rat pharmacokinetics (IV, PO); type: in vivo
[3] = Day (0), 5 mg/kg PO q12h 9 days
[4] = Day (0), 50 mg/kg PO q12h 9 days
[5] = Day (1), 5 mg/kg PO q12h 9 days
[6] = Day (1), 50 mg/kg PO q12h 9 days
[7] = Day (2), 5 mg/kg PO q12h 9 days
[8] = Day (2), 50 mg/kg PO q12h 9 days
[9] = Day (3), 5 mg/kg PO q12h 9 days
[10] = Day (3), 50 mg/kg PO q12h 9 days
[11] = Day (4), 5 mg/kg PO q12h 9 days
[12] = Day (4), 50 mg/kg PO q12h 9 days
[13] = Day (5), 5 mg/kg PO q12h 9 days
[14] = Day (5), 50 mg/kg PO q12h 9 days
[15] = Day (6), 5 mg/kg PO q12h 9 days
[16] = Day (6), 50 mg/kg PO q12h 9 days
[17] = Day (7), 5 mg/kg PO q12h 9 days
[18] = Day (7), 50 mg/kg PO q12h 9 days
[19] = Day (−1), 5 mg/kg PO q12h 9 days
[20] = Day (−1), 50 mg/kg PO q12h 9 days
[21] = Day (−2), 5 mg/kg PO q12h 9 days
[22] = Day (−2), 50 mg/kg PO q12h 9 days

C#CCOCC(=O)Nc1ccc(C(=O)Nc2ccccc2N)cc1 [Compound 1, N-(2-aminophenyl)-4-{2-[(prop-2-yn-1-yl)oxy]acetamido}benzamide]
dose dependence of attenuation of E. coli growth in the colon and ileum (E. coli; FIG. 1): shows dose dependence
dose dependence of inhibition of vancomycin resistant E. coli translocation to the liver and spleen (E. coli; FIG. 1): not compound 1 dose dependent
lowering Colony Unit Forming count in colon tissue compared to vehicle treated animals (E. coli; administered orally at 25 mg/kg, 73.5 mk/kg and 50 mg/kg): 3 log10
E. coli burden in the intestines reduced compared to control (E. coli; colon and ileum, conclusion of the experiment): ~3 logs
translocation of bacteria to liver and spleen (E. coli): completely knocking out translocation
translocation of bacteria to liver and spleen (E. coli; listed as compound 1): totally inhibiting its translocation
Body weights (Final Day) (Mean ± SD) ([1]; 5 mg/kg): 25.2 ± 1.69
Log10 CFU/g [Mean ± SD] Blood ([1]; 5 mg/kg): 1.9 ± 0 Log10 CFU/g
Log10 CFU/g [Mean ± SD] Kidneys ([1]; 5 mg/kg): 2.83 ± 0.29^ns Log10 CFU/g
Log10 CFU/g [Mean ± SD] Liver ([1]; 5 mg/kg): 2.58 ± 0.32 Log10 CFU/g
Log10 CFU/g [Mean ± SD] Spleen ([1]; 5 mg/kg): 3.05 ± 0.3^ns Log10 CFU/g
effect on bacterial translocation ([1]; 5 mg/kg): little to no effect
Body weights (Final Day) (Mean ± SD) ([1]; 50 mg/kg): 26.1 ± 1.20
Log10 CFU/g [Mean ± SD] Blood ([1]; 50 mg/kg): BLOQ
Log10 CFU/g [Mean ± SD] Kidneys ([1]; 50 mg/kg): BLOQ
Log10 CFU/g [Mean ± SD] Liver ([1]; 50 mg/kg): BLOQ
Log10 CFU/g [Mean ± SD] Spleen ([1]; 50 mg/kg): BLOQ
effect on bacterial translocation ([1]; 50 mg/kg): inhibits it completely
Clinical observation (Mean Score) Hunched Posture [1, 3]: 0.0
Clinical observation (Mean Score) Lethergy [1, 3]: 0.0
Clinical observation (Mean Score) Rough coat [1, 3]: 0.0
Clinical observation (Mean Score) hyperpnea [1, 3]: 0.0
Clinical observation (Mean Score) Hunched Posture [1, 4]: 0.0
Clinical observation (Mean Score) Lethergy [1, 4]: 0.0
Clinical observation (Mean Score) Rough coat [1, 4]: 0.0
Clinical observation (Mean Score) hyperpnea [1, 4]: 0.0
Clinical observation (Mean Score) Hunched Posture [1, 5]: 0.0
Clinical observation (Mean Score) Lethergy [1, 5]: 0.0
Clinical observation (Mean Score) Rough coat [1, 5]: 0.0
Clinical observation (Mean Score) hyperpnea [1, 5]: 0.0
Clinical observation (Mean Score) Hunched Posture [1, 6]: 0.0
Clinical observation (Mean Score) Lethergy [1, 6]: 0.0
Clinical observation (Mean Score) Rough coat [1, 6]: 0.0
Clinical observation (Mean Score) hyperpnea [1, 6]: 0.0
Clinical observation (Mean Score) Hunched Posture [1, 7]: 0.0
Clinical observation (Mean Score) Lethergy [1, 7]: 0.0
Clinical observation (Mean Score) Rough coat [1, 7]: 0.0
Clinical observation (Mean Score) hyperpnea [1, 7]: 0.0
Clinical observation (Mean Score) Hunched Posture [1, 8]: 0.0
Clinical observation (Mean Score) Lethergy [1, 8]: 0.0
Clinical observation (Mean Score) Rough coat [1, 8]: 0.0
Clinical observation (Mean Score) hyperpnea [1, 8]: 0.0
Clinical observation (Mean Score) Hunched Posture [1, 9]: 0.0
Clinical observation (Mean Score) Lethergy [1, 9]: 0.0
Clinical observation (Mean Score) Rough coat [1, 9]: 0.0
Clinical observation (Mean Score) hyperpnea [1, 9]: 0.0
Clinical observation (Mean Score) Hunched Posture [1, 10]: 0.0
Clinical observation (Mean Score) Lethergy [1, 10]: 0.0
Clinical observation (Mean Score) Rough coat [1, 10]: 0.0
Clinical observation (Mean Score) hyperpnea [1, 10]: 0.0
Clinical observation (Mean Score) Hunched Posture [1, 11]: 0.0
Clinical observation (Mean Score) Lethergy [1, 11]: 0.0
Clinical observation (Mean Score) Rough coat [1, 11]: 0.0
Clinical observation (Mean Score) hyperpnea [1, 11]: 0.0
Clinical observation (Mean Score) Hunched Posture [1, 12]: 0.0
Clinical observation (Mean Score) Lethergy [1, 12]: 0.0
Clinical observation (Mean Score) Rough coat [1, 12]: 0.0
Clinical observation (Mean Score) hyperpnea [1, 12]: 0.0
Clinical observation (Mean Score) Hunched Posture [1, 13]: 0.0
Clinical observation (Mean Score) Lethergy [1, 13]: 0.1
Clinical observation (Mean Score) Rough coat [1, 13]: 0.5
Clinical observation (Mean Score) hyperpnea [1, 13]: 0.0
Clinical observation (Mean Score) Hunched Posture [1, 14]: 0.0
Clinical observation (Mean Score) Lethergy [1, 14]: 0.0
Clinical observation (Mean Score) Rough coat [1, 14]: 0.0
Clinical observation (Mean Score) hyperpnea [1, 14]: 0.0
Clinical observation (Mean Score) Hunched Posture [1, 15]: 0.0
Clinical observation (Mean Score) Lethergy [1, 15]: 0.4
Clinical observation (Mean Score) Rough coat [1, 15]: 0.7
Clinical observation (Mean Score) hyperpnea [1, 15]: 0.0
Clinical observation (Mean Score) Hunched Posture [1, 16]: 0.0
Clinical observation (Mean Score) Lethergy [1, 16]: 0.0
Clinical observation (Mean Score) Rough coat [1, 16]: 0.4
Clinical observation (Mean Score) hyperpnea [1, 16]: 0.0
Clinical observation (Mean Score) Hunched Posture [1, 17]: 0.0
Clinical observation (Mean Score) Lethergy [1, 17]: 0.5
Clinical observation (Mean Score) Rough coat [1, 17]: 1.0
Clinical observation (Mean Score) hyperpnea [1, 17]: 0.0
Clinical observation (Mean Score) Hunched Posture [1, 18]: 0.0
Clinical observation (Mean Score) Lethergy [1, 18]: 0.0
Clinical observation (Mean Score) Rough coat [1, 18]: 0.4
Clinical observation (Mean Score) hyperpnea [1, 18]: 0.0
Clinical observation (Mean Score) Hunched Posture [1, 19]: 0.0
Clinical observation (Mean Score) Lethergy [1, 19]: 0.0
Clinical observation (Mean Score) Rough coat [1, 19]: 0.0
Clinical observation (Mean Score) hyperpnea [1, 19]: 0.0
Clinical observation (Mean Score) Hunched Posture [1, 20]: 0.0
Clinical observation (Mean Score) Lethergy [1, 20]: 0.0
Clinical observation (Mean Score) Rough coat [1, 20]: 0.0
Clinical observation (Mean Score) hyperpnea [1, 20]: 0.0
Clinical observation (Mean Score) Hunched Posture [1, 21]: 0.0
Clinical observation (Mean Score) Lethergy [1, 21]: 0.0
Clinical observation (Mean Score) Rough coat [1, 21]: 0.0
Clinical observation (Mean Score) hyperpnea [1, 21]: 0.0
Clinical observation (Mean Score) Hunched Posture [1, 22]: 0.0
Clinical observation (Mean Score) Lethergy [1, 22]: 0.0
Clinical observation (Mean Score) hyperpnea [1, 22]: 0.0
Bacteria in treated animals ([1]; day 7, compound 1 at 50 mg/kg): BLOQ
antibacterial effect in liver and blood compared to vehicle controls ([1]; day 7, p<0.05): significant dose dependent antibacterial effect
Kidney -Raw data on Vancomycin (32 μg/ml) plates ([1]; 5 mg/kg): 2.73 Log10 CFU/g and 3.23 Log10 CFU/g and 2.66 Log10 CFU/g and 2.94 Log10 CFU/g and 3.34 Log10 CFU/g and 2.68 Log10 CFU/g and 2.59 Log10 CFU/g and 2.54 Log10 CFU/g and 2.75 Log10 CFU/g and BLOQ
Liver-Raw data on Vancomycin (32 μg/ml) plates ([1]; 5 mg/kg): 2.67 Log10 CFU/g and 2.41 Log10 CFU/g (2×) and 3.42 Log10 CFU/g and 2.33 Log10 CFU/g and 2.39 Log10 CFU/g (2×) and 2.53 Log10 CFU/g and 2.61 Log10 CFU/g and 2.57 Log10 CFU/g
Spleen -Raw data on Vancomycin (32 μg/ml) plates ([1]; 5 mg/kg): 3.04 Log10 CFU/g and 3.00 Log10 CFU/g and 3.51 Log10 CFU/g and 2.62 Log10 CFU/g and BLOQ (4×) and 2.91 Log10 CFU/g and 3.17 Log10 CFU/g
Kidney -Raw data on Vancomycin (32 μg/ml) plates ([1]; 50 mg/kg): BLOQ
Liver-Raw data on Vancomycin (32 μg/ml) plates ([1]; 50 mg/kg): BLOQ
Spleen -Raw data on Vancomycin (32 μg/ml) plates ([1]; 50 mg/kg): BLOQ
Blood -Raw data on Vancomycin (32 μg/ml) plates - on day 7 PI ([1]; 5 mg/kg): 1.90 Log10 CFU/g
Blood -Raw data on Vancomycin (32 μg/ml) plates - on day 7 PI ([1]; 5 mg/kg, 5 mg/kg): BLOQ
Blood -Raw data on Vancomycin (32 μg/ml) plates - on day 7 PI ([1]; 50 mg/kg): BLOQ
clinical condition of animals ([1]; treated groups): apparently normal
C_max IV - rat ([2]; IV): 177 µM
V-d IV - rat ([2]; IV): 0.565 L/kg
C_max PO - rat ([2]; PO): 3.3 µM
half-life ([2]; in vivo, PO, read-out: Elimination T½ (min) PO - rat): 34 min
half-life ([2]; in vivo, intravenous, PIV, read-out: Elimination T½ (min) PIV - rat): 66 min
bioavailability ([2]; in vivo, oral): 1%
